A short description of this data set: Photostability of phytoglycogen-ethyl-4-aminocinnamate conjugate versus aminocinnamate. It counts as physicochemical. The settings on record: after 4 h of exposure to UV-irradiation, thin film. How it is done:
Aminocinnamate and a phytoglycogen-ethyl-4-aminocinnamate conjugate were dissolved in ethanol or in water, respectively.
Solutions were deposited as thin films onto a quartz plate and dried in air for 30 min. After drying, the samples were irradiated with UV light, as in Example 11, for 4 h and then tested for their photostability.
Photodegradation was calculated from the decrease in the maximum absorption of the respective products.

As to `CCOC(=O)C=Cc1ccc(N)cc1` [aminocinnamate, ethyl 4-aminocinnamate], the activity retained was 40%.

The values are drawn from US20190038542A1, “MOISTURIZING PERSONAL CARE COMPOSITIONS COMPRISING MONODISPERSE PHYTOGLYCOGEN NANOPARTICLES AND A FURTHER POLYSACCHARIDE” (MIREXUS BIOTECHNOLOGIES INC., priority 2016, published 2019).
